From patent US20060217305A1, “Induction of tumor cell senescence by retinoid receptor agonists and antagonists” (Ordway Research Institute, Inc., priority 2005, published 2006)
Values joined by “and” are separate entries in the source; they are usually repeats but may differ in a detail not shown here. Equal entries are not always repeated.

Tested on: MCF-7 cells, human transcripts
Assay: Affymetrix U133 2.0 Plus microarray analysis of gene expression
Format: cell-based
Method: FIG. 4 depicts microarray analysis of changes in gene expression in MCF-7 cells treated with RAR agonist LGD1550 or RAR antagonist LG100815, plotted using GeneSpring software. The X axis represents different time points of treatment with RAR ligands (0 point correspond to cells cultured for 3 days with DMSO carrier).
To determine the effects of the RAR agonist and antagonist on the expression of essentially all the human genes, MCF-7 cells were treated with 100 nM of RAR agonist LGD1550 or 10 μM of RAR antagonist LG100815, concentrations that provide maximal induction of gene expression according to Q-PCR assays (as discussed above). Cells were treated for 24, 48 or 72 hrs, and total RNA from the untreated or treated cells was isolated using Qiagen's RNeasy Total RNA Isolation Kit. For gene expression profiling, RNA samples were provided to the microarray service facility of the Wadsworth Center Genomics Institute, which carried out biotinylated target preparation and hybridization with Affymetrix U 133 2.0 Plus oligonucleotide microarrays containing 56,000 probe sets representing 48,500 human transcripts. The hybridization signals were normalized using GCRMA procedure and analyzed using GeneSpring software (Silicone Genetics). […] The effects of the agonist and the antagonist also agreed with the results of the earlier analysis of the effects of RA on MCF-7 cells, with all 13 genes previously shown by RT-PCR to be induced in that system (Dokmanovic et al., 2002) also showing induction in the present microarray analysis (FIG. 4b).
RNA or protein products of genes that are induced to a similar level by both the RAR agonist and the RAR antagonist can be used as reporters in screening for compounds with properties similar to LG0100815. RNA or protein products of genes from this group (or promoter constructs for such genes) can be used as reporters in screening for compounds that mimic the effect of retinoids. Table 3, as shown below, lists a set of 508 genes chosen as preferred reporters. These genes were selected by being strongly (at least 2-fold) induced by both the agonist and the antagonist relative to untreated cells and showing no more than two-fold difference between their induction by the agonist and the antagonist. 62 genes listed at the top of Table 3 are particularly preferred reporters, as they are most strongly (at least 4-fold) induced by both the agonist and the antagonist. Table 4, as shown below, lists a set of 53 genes that can be used as preferred markers to discriminate between RARE-dependent and RARE-independent induction of transcription. These genes were chosen by being induced at least 3-fold by the agonist relative to untreated cells and also showing at least 4 times stronger induction by the agonist than by the antagonist. FIG. 6 plots the maximal fold induction of gene expression produced by the agonist versus that produced by the antagonist for the genes listed in Table 3 (particularly preferred reporters only) and in Table 4, with the corresponding trend lines. The relative effects of a tested compound on the genes in Table 3 and Table 4 should indicate whether the compound behaves as a RAR agonist or RAR antagonist. For example, one can select matching pairs of genes from Table 3 and Table 4 that are induced by the agonist to approximately the same degree. A compound that mimics the effects of the agonist should induce such genes to a similar level, whereas a compound that behaves like an antagonist should induce the gene from Table 3 to a much greater degree than the gene from Table 4.

[1] = MCF-7, LGD1550 100 nM, 24, 48 or 72 hrs
[2] = MCF-7, LGD1550 100 nM, 24, 48 or 72 hrs, listed as agonist

CC(/C=C/C=C(\C)c1cc(C(C)(C)C)cc(C(C)(C)C)c1)=C\C(=O)O [LGD1550]
Maximal effect, Fold induction (Genbank AI911972, probe 230780_at): 3.89 fold
Maximal effect, Fold induction (Genbank AW268719, probe 236798_at): 2.03 fold
Maximal effect, Fold induction (Genbank AW612407, probe 230098_at): 2.32 fold
Maximal effect, Fold induction (Genbank BF038869, probe 235322_at): 2.13 fold
Maximal effect, Fold induction (Genbank CA442342, probe 1556097_at): 3.11 fold
HOXA4 fold induction by the agonist (MCF-7, LGD1550 100 nM): 7.8 fold
RBP1 fold induction by the agonist (MCF-7, LGD1550 100 nM): 4.4 fold
number of 40 RARE-containing human genes induced ≧1.5-fold (MCF-7, LGD1550 100 nM): seven
response of RARE-containing genes induced by both ligands, agonist relative to antagonist (MCF-7, LGD1550 100 nM vs LG100815 10 μM): 3-5 fold stronger
APXL2 239435_x_at fold induction, maximal effect of agonist [1]: 63.13 fold
APXL2 241935_at fold induction, maximal effect of agonist [1]: 5.82 fold
BF593636 228642_at fold induction, maximal effect of agonist [1]: 130.43 fold
CA448125 1557050_at fold induction, maximal effect of agonist [1]: 8.90 fold
CA448125 1557051_s_at fold induction, maximal effect of agonist [1]: 23.74 fold
CEACAM1 206576_s_at fold induction, maximal effect of agonist [1]: 16.23 fold
CP 228143_at fold induction, maximal effect of agonist [1]: 10.88 fold
CP 1558034_s_at fold induction, maximal effect of agonist [1]: 44.25 fold
CYP1A1 205749_at raw signal, maximal effect of agonist [1]: 35.09
GBP3 223434_at fold induction, maximal effect of agonist [1]: 7.32 fold
HOXA3 230080_at fold induction, maximal effect of agonist [1]: 10.38 fold
HPS3 227253_at fold induction, maximal effect of agonist [1]: 21.01 fold
HSXIAPAF1 228617_at fold induction, maximal effect of agonist [1]: 17.54 fold
IGFBP3 212143_s_at fold induction, maximal effect of agonist [1]: 16.12 fold
KRT4 213240_s_at fold induction, maximal effect of agonist [1]: 9.38 fold
OAS2 204972_at fold induction, maximal effect of agonist [1]: 15.91 fold
RNASE1 201785_at fold induction, maximal effect of agonist [1]: 49.39 fold
SLC1A1 213664_at fold induction, maximal effect of agonist [1]: 8.96 fold
TRIM31 215444_s_at fold induction, maximal effect of agonist [1]: 12.16 fold
CYP26A1 206424_at fold induction, maximal effect of agonist [2]: 220 fold and 220.23 fold
HOXA1 214639_s_at fold induction, maximal effect of agonist [2]: 95 fold
Maximal effect, Fold induction (gene ACVR1B, Genbank NM_020327, probe 208223_s_at): 2.81 fold
Maximal effect, Fold induction (gene ADFP, Genbank BC005127, probe 209122_at): 2.05 fold
Maximal effect, Fold induction (gene AKAP13, Genbank AK022014, probe 222024_s_at): 2.03 fold
Maximal effect, Fold induction (gene AMIGO, Genbank AA001423, probe 226718_at): 2.40 fold
Maximal effect, Fold induction (gene ARHGAP5, Genbank AK023014, probe 233849_s_at): 2.03 fold
Maximal effect, Fold induction (gene ARMCX3, Genbank AL121883, probe 222444_at): 2.01 fold
Maximal effect, Fold induction (gene BHLHB2, Genbank NM_003670, probe 201170_s_at): 3.46 fold
Maximal effect, Fold induction (gene CASP2, Genbank BC002427, probe 209811_at): 3.72 fold
Maximal effect, Fold induction (gene CDKL5, Genbank AI611074, probe 227004_at): 3.20 fold
Maximal effect, Fold induction (gene CHP, Genbank NM_007236, probe 207993_s_at): 2.32 fold
Maximal effect, Fold induction (gene CRTAP, Genbank AA025858, probe 227138_at): 2.07 fold
Maximal effect, Fold induction (gene CTMP, Genbank AI184512, probe 229253_at): 2.03 fold
Maximal effect, Fold induction (gene DKFZp434H2226, Genbank AL137370, probe 232893_at): 2.04 fold
Maximal effect, Fold induction (gene DKFZp434K2435, Genbank AL136855, probe 223594_at): 2.08 fold
Maximal effect, Fold induction (gene DNCL2B, Genbank AW959427, probe 238116_at): 2.02 fold
Maximal effect, Fold induction (gene DSCR1, Genbank NM_004414, probe 208370_s_at): 3.64 fold
Maximal effect, Fold induction (gene DUSP3, Genbank NM_004090, probe 201538_s_at): 2.94 fold
Maximal effect, Fold induction (gene DUSP16, Genbank AY038927, probe 1555399_a_at): 2.30 fold
Maximal effect, Fold induction (gene FLJ10996, Genbank NM_019044, probe 219774_at): 2.02 fold
Maximal effect, Fold induction (gene FLJ11196, Genbank NM_018357, probe 218651_s_at): 2.24 fold
Maximal effect, Fold induction (gene FLJ30656, Genbank BF197707, probe 212529_at): 2.09 fold
Maximal effect, Fold induction (gene FLJ32096, Genbank AK056658, probe 1555870_at): 2.98 fold
Maximal effect, Fold induction (gene FOXO3A, Genbank N25732, probe 204131_s_at): 2.53 fold
Maximal effect, Fold induction (gene GALNT7, Genbank BF699855, probe 222587_s_at): 2.51 fold
Maximal effect, Fold induction (gene GUCY1B2, Genbank NM_004129, probe 220506_at): 2.63 fold
Maximal effect, Fold induction (gene HIG2, Genbank NM_013332, probe 218507_at): 2.19 fold
Maximal effect, Fold induction (gene HNRPL, Genbank X16135, probe 35201_at): 2.16 fold
Maximal effect, Fold induction (gene INPP1, Genbank NM_002194, probe 202794_at): 2.01 fold
Maximal effect, Fold induction (gene INSIG1, Genbank BG292233, probe 201626_at): 2.04 fold
Maximal effect, Fold induction (gene JMJD3, Genbank AB002344, probe 41386_i_at): 2.48 fold
Maximal effect, Fold induction (gene KIAA1219, Genbank BG236163, probe 221738_at): 2.03 fold
Maximal effect, Fold induction (gene LCP1, Genbank J02923, probe 208885_at): 2.25 fold
Maximal effect, Fold induction (gene LGALS8, Genbank L78132, probe 208935_s_at): 2.79 fold
Maximal effect, Fold induction (gene LOC23117, Genbank AL047052, probe 235060_at): 2.00 fold
Maximal effect, Fold induction (gene LOC55971, Genbank AA496034, probe 227372_s_at): 2.09 fold
Maximal effect, Fold induction (gene LOC158402, Genbank BE504242, probe 236769_at): 2.00 fold
Maximal effect, Fold induction (gene LOC284408, Genbank AW467077, probe 235779_at): 2.03 fold
Maximal effect, Fold induction (gene MAML2, Genbank AI769569, probe 235457_at): 3.92 fold
Maximal effect, Fold induction (gene MAP3K1, Genbank AA541479, probe 225927_at): 2.05 fold
Maximal effect, Fold induction (gene MDM4, Genbank NM_002393, probe 205655_at): 2.06 fold
Maximal effect, Fold induction (gene MGC9850, Genbank BE378670, probe 224857_s_at): 2.58 fold
Maximal effect, Fold induction (gene MICAL2, Genbank BE965029, probe 212473_s_at): 2.01 fold
Maximal effect, Fold induction (gene MT1X, Genbank NM_005952, probe 208581_x_at): 3.10 fold
Maximal effect, Fold induction (gene NEDD9, Genbank AL136139, probe 202149_at): 2.24 fold
Maximal effect, Fold induction (gene NQO1, Genbank AI039874, probe 201467_s_at): 2.56 fold
Maximal effect, Fold induction (gene NR3C1, Genbank AI432196, probe 201865_x_at): 2.08 fold
Maximal effect, Fold induction (gene PARVA, Genbank NM_018222, probe 217890_s_at): 2.17 fold
Maximal effect, Fold induction (gene PRDM15, Genbank AP001745, probe 225539_at): 2.04 fold
Maximal effect, Fold induction (gene PRSS23, Genbank NM_007173, probe 202458_at): 2.05 fold
Maximal effect, Fold induction (gene PSMD7, Genbank AW361702, probe 238738_at): 2.04 fold
Maximal effect, Fold induction (gene PTK9, Genbank N25562, probe 214008_at): 2.05 fold
Maximal effect, Fold induction (gene QDPR, Genbank BC000576, probe 209123_at): 2.02 fold
Maximal effect, Fold induction (gene S100P, Genbank NM_005980, probe 204351_at): 2.33 fold
Maximal effect, Fold induction (gene SGPL1, Genbank NM_003901, probe 208381_s_at): 2.14 fold
Maximal effect, Fold induction (gene SLC35D2, Genbank AJ005866, probe 213083_at): 2.73 fold
Maximal effect, Fold induction (gene SMAD5, Genbank AI439752, probe 235451_at): 2.30 fold
Maximal effect, Fold induction (gene STYX, Genbank BG390493, probe 244030_at): 2.01 fold
Maximal effect, Fold induction (gene SUOX, Genbank NM_000456, probe 1553030_a_at): 2.05 fold
Maximal effect, Fold induction (gene TACSTD2, Genbank J04152, probe 202286_s_at): 2.17 fold
Maximal effect, Fold induction (gene TEAD2, Genbank AA337048, probe 238323_at): 2.81 fold
Maximal effect, Fold induction (gene TGFB2, Genbank AU145950, probe 228121_at): 2.04 fold
Maximal effect, Fold induction (gene TLE3, Genbank AI567426, probe 212769_at): 2.72 fold
Maximal effect, Fold induction (gene TMEM42, Genbank BF056095, probe 226361_at): 2.47 fold
Maximal effect, Fold induction (gene TNFAIP2, Genbank NM_006291, probe 202510_s_at): 2.41 fold
Maximal effect, Fold induction (gene TRIO, Genbank AV718192, probe 209012_at): 2.07 fold
Maximal effect, Fold induction (gene UROS, Genbank NM_000375, probe 203031_s_at): 2.13 fold
Maximal effect, Fold induction (gene USP24, Genbank BF444943, probe 212381_at): 2.01 fold
Maximal effect, Fold induction (gene VHL, Genbank BF972755, probe 1559227_s_at): 2.05 fold
Maximal effect, Fold induction (gene WIG1, Genbank NM_022470, probe 219628_at): 2.30 fold
Maximal effect, Fold induction (gene ZNF26, Genbank BC046206, probe 1555325_s_at): 2.03 fold
Maximal effect, Fold induction (gene ZNF281, Genbank AA121673, probe 228785_at): 2.28 fold
Maximal effect, Fold induction (gene ZNF286, Genbank BM968434, probe 1557684_at): 2.29 fold
